Assay: Franz cell diffusion assay, transcutaneous permeation
Format: in vitro ADME, porcine
Conditions: in the presence of the combined extracts
Experimental: The transcutaneous permeation of w/o creams according to Examples 2 and 3 were evaluated by using the Franz cell diffusion assay and compared with the permeation of w/o creams containing Mitragyna alkaloids only and Cannabis cannabinoids only, according to examples 4 and 5.
As known, Franz cell diffusion assay is the most common and reliable method to evaluate the transcutaneous permeation of molecules. Such an assay is well known in the art and a detailed description is not necessary.
The assay conditions were as follows: • cells used: 0.9 and 1.4 mm diameter. • membrane: porcine ear skin, 1 mm thickness. • temperature of incubation: 32° C.
The results of the evaluations are shown in FIG. 1, where the different bars relate to: • a cream according to Example 4, with 1% Mitragyna alkaloids; • a cream according to Example 5, with 1% cannabinoids; • a cream according to Example 2, containing 0.5% purified Mitragyna alkaloids and 0.5% cannabinoids; • a cream with enhancer according to Example 3, also containing 0.5% purified Mitragyna alkaloids and 0.5% cannabinoids, • respectively.
The particular w/o cream according to Example 2 used in the evaluation of transcutaneous permeation had the following composition (percentages in weight): • Diisostearoyl Polyglyceryl-3 Dimer Dilinoleate: 3% • Synthetic Beeswax: 0.2% • Hydrogenated Castor Oil: 0.3% • Paraffinum liquidum: 7% • Isopropyl Myristate: 7% • Hydrogenated polyisobutene: 7.5% • Aqua (water): 60% • Magnesium sulphate heptahydrate: 1% • Mitragyna purified extract (or isolated alkaloids) alcoholic solution: the amount/concentration resulting in a 0.5% alkaloid concentration of in the final formulation; • Cannabis purified extract (or isolated cannabinoids) alcoholic solution: the amount/concentration resulting in a 0.5% […] concentration in the final formulation.

| SMILES | concentration detected in Franz cell receptor (order of selective passage) |
| --- | --- |
| C=C[C@H]1CN2CCc3c([nH]c4cccc(OC)c34)[C@@H]2C[C@@H]1/C(=C\OC)C(=O)OC [paynantheine] | in lower percentage |
| C=C[C@H]1CN2CCc3c([nH]c4cccc(OC)c34)[C@H]2C[C@@H]1/C(=C\OC)C(=O)OC [isopaynantheine] | highest concentrations detected |
| C=C(C)[C@@H]1CCC(C)=C[C@H]1c1c(O)cc(CCCCC)cc1O [cannabidiol] | increase in concentration |
| CC[C@@H]1CN2CCc3c([nH]c4cccc(OC)c34)[C@H]2C[C@@H]1/C(=C\OC)C(=O)OC [speciociliatine] | highest concentrations detected |
| CC[C@@H]1CN2CCc3c([nH]c4cccc(OC)c34)[C@@H]2C[C@@H]1/C(=C\OC)C(=O)OC [mitragynine] | in lower percentage |

Reference: US20230405075A1, “PR[…] EXTRACT OR ITS ISOLATED ALKALOIDS AND CANNABIS EXTRACT OR ITS ISOLATED CANNABINOIDS, AND COSMETIC AND/OR PHARMACEUTICAL USE THEREOF” (HERBA INVEST, PTE. LTD., priority 2020, published 2023)
